Experimental data: patent US4279915A, “Method of treatment using new leurosine derivatives” (priority 1973, dated 1981)

How the values were obtained:
solid tumors = test: clinical treatment of patients with solid tumors (Example B); type: in vivo, human; conditions: for decrease of prothrombin index and activity: by the 7th day of treatment
Protocol: N-formyl-leurosine was administered in form of i.v. injection as single treatment or in 5 and 2×5 day long periods continually to exclusively patients with solid tumors.
Simultaneously adjuvant therapy was applied (analgesics, antibiotics, cardiac drugs, roborants) if necessary.
Following single treatments primarily the effect on blood picture, and especially on leukocyte count was observed. In case of higher total doses given continuously for 5 or 10 days, liver function, enzymes, serum creatinine, uric acid level were also determined. The neurological condition of the patients was also controlled.

[1] = test system: leukemias and haemoblastoses; test: therapeutic results in leukemias and haemoblastoses (Table VII); type: in vivo, human
Protocol: In addition, eight patients were added to the group treated on the basis of this schedule. Therapeutic results obtained by F-Leurosine in leukemias and haemoblastoses are listed in Table VII. |Therapeutic Results Obtained by F-Leurosine Treatment

lymphomas = test: effect of F-leurosine on lymphomas in patients (Table II); type: in vivo, human
Source text: Both of Hodgkin patients belonged to the poor risk category.
EFFECT OF F-LEUROSINE ON LYMPHOMAS

S 37 ascites sarcoma = test: antitumor effect on S 37 ascites sarcoma; type: in vivo
Source text: The treatment extends the life span of animals suffering from L-1210 lymphoid leukemia, s37 ascites sarcoma or Yoshida ascites sarcoma by about 150 to 250 percent.
EFFECT OF F-LEUROSINE ON ASCITIC TUMORS

[2] = test system: lymphoma, leukemia and Hodgkins disease; test: antitumor activity; type: in vivo
[3] = test system: haemoblastoses and leukemia; test: clinical treatment of patients with haemoblastoses and leukemia (Example A); type: in vivo, human
Protocol: Based on the experiences obtained on 17 patients during the first half-year, further 8 patients with haemoblastoses and leukemia were given treatment. The patients were given daily 0.05 mg/kg single doses. The clinical examinations during the second half-year were performed with the same daily dose, but with different total doses. The smallest total amount meant 3, the highest 12 subsequent doses. The dosage was tested both in forms of sequential and intermittent treatment.
3 patients out of 8 received the drug sequentially, which meant single doses on subsequent days, the remaining 5 patients were given intermittent treatment.
The intermittent treatment was made in two ways: 1. Single doses through 3 days, followed by 5 days interval as total up to an amount of 12 times 0.05 mg/kg. 2. Single dose on the first day, followed by 3 days interval, up to a total amount of 12 times 0.05 mg/kg.
The route of administration was always intravenous, 1 mg active substance was dissolved in 10 ml physiological saline.

[4] = 0.05 mg/kg daily dose, applied 3-12 times

For CCC12CN3CCc4c([nH]c5ccccc45)[C@@](C(=O)OC)(c4cc5c(cc4OC)N(C=O)[C@H]4[C@@](O)(C(=O)OC)[C@H](OC(C)=O)[C@]6(CC)C=CCN7CC[C@]54[C@@H]76)C[C@@H](C3)C1O2 (stereo partly shown) [N-formyl-leurosine], the “tumor growth: progress during the treatment” value (solid tumors; 0.018 mg/kg during 2×5 days, one case) was “express progress during the treatment”, the “tumor growth: regression by X-ray and touching” value (solid tumors; 0.030 mg/kg during 2×5 days, one case) was “slight regression” and the leukocyte count change (solid tumors; between the 3rd and 5th days) was “decreased again”. For the same molecule, the leukocyte count level (solid tumors; between the 3rd and 5th days, remained over) was “over 3000”, the leukocyte count (solid tumors; between the 9th and 14th days) was “returns to the initial value” and the “tumor growth: other cases” value (solid tumors; continuous administration) was “No changes were found in other cases”. The “effect on tumor growth” value (solid tumors; continuous administration of 0.018-0.035 mg/kg doses) was “some effect was observed”, the qualitative blood picture (solid tumors; dose level presently used) was “no change was shown” and the “levels of enzymes (serum alk, phosphatase, SGOT, SGPT)” value (solid tumors; during the treatment) was “did not essentially change”. The leukocyte count (solid tumors; first 48 hours) was “increased”, the “liver function, urinalysis, serum creatinine and uric acid levels” value (solid tumors; human, in vivo) was “no changes or signs indicating toxicity were found” and the neurological side-effects (solid tumors; human, in vivo) was “not observed”. For the same molecule, the “decrease of prothrombin index and activity” value (solid tumors; one case) was 50%, the “prothrombin-time, increase” value (solid tumors; six cases) was “increased in three cases out of six” and the “prothrombin time, decrease” value (solid tumors; two cases) was “very slightly decreased”. For the same molecule, the “decrease of prothrombin index and activity” value (solid tumors; two cases) was 37%, the Complete remission ([1]; ALL, 1 patient) was 1 patients and the Complete remission ([1]; AML, 1 patient) was 1 patients. It also gave a Partial remission ([1]; AMoL, 1 patient) of 1 patients, a Partial remission ([1]; AUL, 1 patient) of 1 patients and a Partial remission ([1]; CLL, 3 patients) of 3 patients. For the same molecule, the No response ([1]; Hodgkin's disease, 2 patients) was 2 patients, the No response ([1]; LSC, 5 patients) was 1 patients and the Partial remission ([1]; LSC, 5 patients) was 4 patients. It also gave a No response ([1]; Multiple myelomo, 6 patients) of 2 patients, a Partial remission ([1]; Multiple myelomo, 6 patients) of 4 patients and a No response ([1]; RSC, 2 patients) of 1 patients. The Partial remission ([1]; RSC, 2 patients) was 1 patients, the Complete remission ([1]; Total, 22 patients) was 2 patients and the No response ([1]; Total, 22 patients) was 6 patients. For the same molecule, the Partial remission ([1]; Total, 22 patients) was 14 patients, the “X-ray picture of the chest, atelectasia in lower region of right lung” value (lymphomas; Hodgkin patient four, before vs after treatment) was “undoubted improvement” and the response (lymphomas; lymphosarcoma patient eight, poor risk) was “non-responding”. For the same molecule, the palpable lymph nodes (lymphomas; lymphosarcoma patient five, after second course) was “all but one of the palpable lymph nodes disappeared”, the “Westergren value after treatment” value (lymphomas; lymphosarcoma patient five, 75 mm/hour before the treatment) was 12 mm/h and the remission (lymphomas; lymphosarcoma patient three) was “moderate remission”. For the same molecule, the “change in mediastinal pathologic lymph nodes' size and intensity” value (lymphomas; lymphosarcoma patient two) was “not spectacular, but definite”, the palpable lymph nodes (lymphomas; lymphosarcoma patient two) was “The majority of their palpable lymph nodes disappeared” and the effect (lymphomas; patient five, course I, Lysc., schedule A) was “IR>50%”. For the same molecule, the effect (lymphomas; patient five, course II, Lysc., schedule B) was “IR<50%”, the effect (lymphomas; patient nine, Hodgkin SC., schedule C) was “IR<50%” and the effect (lymphomas; patient one, Rsc., schedule C) was “IR<50%”. The effect (lymphomas; patient three, Lysc., schedule A) was “IR<50%”, the effect (lymphomas; patient two, Lysc., schedule C) was “IR>50%” and the sensitivity to treatment (lymphomas; poor risk Hodgkin patient four) was “proved to be sensitive”. The improvement after therapy (lymphomas; two reticulosarcoma patients, some lymph nodes diminished, softer, more mobile) was “one showed a moderate improvement after therapy”, the Tumor free (S 37 ascites sarcoma; 4 × 2.5 mg/kg i.p. daily) was 4/6 and the Tumor inhibition (S 37 ascites sarcoma; 4 × 2.5 mg/kg i.p. daily) was 100. The Survival (S 37 ascites sarcoma; 8 × 1.0 mg/kg i.p. daily) was 268, the Tumor free (S 37 ascites sarcoma; 8 × 1.0 mg/kg i.p. daily) was 1/6 and the “extension of life span” value (S 37 ascites sarcoma; s37 ascites sarcoma, about) was 150-250%. For the same molecule, the antitumor activity [2] was “favorable antitumor activity”, the side effects [3, 4] was “does not produce any side effects” and the untoward neurological symptoms [3, 4] was “No untoward symptoms of a neurological respect appear”. For the same molecule, the objective improvement ([3]; 0.05 mg/kg daily i.v., complete treatments) was “all complete treatments were followed by objective improvement”, the Complete remission ([3]; 0.05 mg/kg daily i.v., leukemic patients) was “both leukemic patients had complete remission” and the “effectiveness in acute leukemia and lymphomas” value ([3]; phase I examinations, acute leukemia (myeloblast and lymphoblast type) and lymphomas) was “equally effective in acute leukemia (myeloblast and lymphoblast type), and in lymphomas”. The cytostatic effect ([3]; summary) was “very effective cytostatic”.
